Calls of active or inactive are those of the source. The calls are words filed in the database; no cut-off is given here.
What was measured:
[1] = target: Transient receptor potential cation channel subfamily V member 1 (Rattus norvegicus) (UniProt O35433); assay: Agonist activity at rat TRPV1 heterologously expressed in CHO cells assessed as […] [45Ca2+] uptake by liquid scintillation counting; assay type: cell-based
[2] = target: T1, Transient receptor potential cation channel subfamily V member 1 (Rattus norvegicus, UniProt O35433); assay: Displacement of [3H]RTX from rat TRPV1 after 60 mins by competitive binding assay
[3] = target: T1, Transient receptor potential cation channel subfamily V member 1; assay: Antagonist activity at rat TRPV1 heterologously expressed in CHO cells assessed as inhibition of capsaicin-induced [45Ca2+] uptake by liquid scintillation counting; assay type: cell-based

Chain of Transient receptor potential cation channel subfamily V member 1 (Rattus norvegicus) (O35433 whole entry): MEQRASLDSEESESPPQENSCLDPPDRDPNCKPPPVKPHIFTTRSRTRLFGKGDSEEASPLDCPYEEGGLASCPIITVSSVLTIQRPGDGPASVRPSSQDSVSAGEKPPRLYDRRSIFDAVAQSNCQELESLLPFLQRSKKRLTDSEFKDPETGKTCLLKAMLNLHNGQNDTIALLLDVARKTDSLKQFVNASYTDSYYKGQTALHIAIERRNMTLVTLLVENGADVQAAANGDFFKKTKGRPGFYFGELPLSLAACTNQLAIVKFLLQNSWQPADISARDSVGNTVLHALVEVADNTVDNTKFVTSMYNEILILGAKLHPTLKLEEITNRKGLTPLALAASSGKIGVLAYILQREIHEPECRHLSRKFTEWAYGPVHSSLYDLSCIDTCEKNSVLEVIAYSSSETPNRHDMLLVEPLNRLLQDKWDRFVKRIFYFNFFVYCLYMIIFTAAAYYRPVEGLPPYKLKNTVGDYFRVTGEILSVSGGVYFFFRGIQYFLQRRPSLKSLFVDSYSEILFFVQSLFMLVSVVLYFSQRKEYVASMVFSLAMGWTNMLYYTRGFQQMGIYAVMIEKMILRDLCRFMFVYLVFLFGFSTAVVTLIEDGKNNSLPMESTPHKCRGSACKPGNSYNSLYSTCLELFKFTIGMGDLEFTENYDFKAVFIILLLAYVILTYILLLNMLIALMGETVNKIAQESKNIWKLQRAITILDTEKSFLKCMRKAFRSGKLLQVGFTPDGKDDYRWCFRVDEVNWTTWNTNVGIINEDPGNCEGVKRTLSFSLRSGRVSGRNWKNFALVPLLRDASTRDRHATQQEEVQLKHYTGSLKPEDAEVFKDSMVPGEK
T1 sequence (O35433 whole entry): as above

C[C@@H](NC(=S)NC[C@H](COC(=O)C(C)(C)C)Cc1ccccc1)c1ccc(NS(C)(=O)=O)cc1
Activity [1]: inactive

C[C@@H](NC(=S)N[C@@H](COC(=O)C(C)(C)C)Cc1ccccc1)c1ccc(NS(C)(=O)=O)cc1
Activity [1]: inactive

Cc1ccc(C[C@H](CNC(=S)N[C@H](C)c2ccc(NS(C)(=O)=O)cc2)COC(=O)C(C)(C)C)cc1C
Activity [1]: inactive

Cc1ccc(C[C@@H](CNC(=S)N[C@H](C)c2ccc(NS(C)(=O)=O)cc2)COC(=O)C(C)(C)C)cc1C
Activity [1]: inactive
Ki [2]: 2.12 nM
Ki [3]: 13.2 nM

CC(NC(=S)NCC(COC(=O)C(C)(C)C)Cc1ccc(C(C)(C)C)cc1)c1ccc(NS(C)(=O)=O)cc1 (racemic)
Activity [1]: inactive

Cc1ccc(CC(CNC(=S)N[C@H](C)c2ccc(NS(C)(=O)=O)cc2)COC(=O)C(C)(C)C)cc1C (stereo not given in full)
Activity [1]: inactive

C[C@H](NC(=S)NC[C@H](COC(=O)C(C)(C)C)Cc1ccccc1)c1ccc(NS(C)(=O)=O)cc1
Activity [1]: inactive

C[C@@H](NC(=S)NC[C@@H](COC(=O)C(C)(C)C)Cc1ccc(C(C)(C)C)cc1)c1ccc(NS(C)(=O)=O)cc1
Activity [1]: inactive
Ki [2]: 6.75 nM

CC(C)(C)C(=O)OC[C@@H](CNC(=S)NCc1ccc(NS(C)(=O)=O)cc1)Cc1ccccc1
Activity [1]: inactive
Ki [2]: 252 nM
Ki [3]: 64.3 nM

C[C@H](NC(=S)NC[C@@H](COC(=O)C(C)(C)C)Cc1ccccc1)c1ccc(NS(C)(=O)=O)cc1
Activity [1]: inactive

CC(C)(C)C(=O)OC[C@@H](CNC(=S)NCc1ccc(NS(C)(=O)=O)cc1)Cc1ccc(C(C)(C)C)cc1
Ki [2]: 64 nM
Ki [3]: 86 nM

C[C@@H](NC(=S)NC[C@@H](COC(=O)C(C)(C)C)Cc1ccccc1)c1ccc(NS(C)(=O)=O)cc1
Activity [1]: inactive

Cc1ccc(C[C@H](CNC(=S)NCc2ccc(NS(C)(=O)=O)cc2)COC(=O)C(C)(C)C)cc1C
Ki [2]: 29.3 nM
Ki [3]: 67 nM

C[C@H](NC(=S)N[C@@H](COC(=O)C(C)(C)C)Cc1ccccc1)c1ccc(NS(C)(=O)=O)cc1
Activity [1]: inactive

Cc1ccc(CC(CNC(=S)NC(C)c2ccc(NS(C)(=O)=O)cc2)COC(=O)C(C)(C)C)cc1C (racemic)
Activity [1]: inactive

C[C@@H](NC(=S)N[C@H](COC(=O)C(C)(C)C)Cc1ccccc1)c1ccc(NS(C)(=O)=O)cc1
Activity [1]: inactive

CC(C)(C)C(=O)OC[C@H](CNC(=S)NCc1ccc(NS(C)(=O)=O)cc1)Cc1ccccc1
Activity [1]: inactive
Ki [2]: 236 nM
Ki [3]: 80.6 nM

C[C@H](NC(=S)N[C@H](COC(=O)C(C)(C)C)Cc1ccccc1)c1ccc(NS(C)(=O)=O)cc1
Activity [1]: inactive

C[C@@H](NC(=S)NCC(COC(=O)C(C)(C)C)Cc1ccc(C(C)(C)C)cc1)c1ccc(NS(C)(=O)=O)cc1 (stereo not given in full)
Activity [1]: inactive

C[C@@H](NC(=S)NC[C@H](COC(=O)C(C)(C)C)Cc1ccc(C(C)(C)C)cc1)c1ccc(NS(C)(=O)=O)cc1
Activity [1]: inactive
Ki [2]: 17.9 nM

From ChEMBL document CHEMBL3286098, “α-Methylated simplified resiniferatoxin (sRTX) thiourea analogues as potent and stereospecific TRPV1 antagonists” (Bioorg Med Chem Lett, 2014)
